The assay concerns P388 leukemia ip, CD2F1 mice, survival T/C. As to the kind of experiment: NCI In Vivo Anticancer Drug Screen. Data for tumor model P388 Leukemia (intraperitoneal) in CD2F1 (CDF1) mice. The conditions noted are these: endpoint: median survival time, higher = longer survival. Summed up: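 Mice carrying the transplanted tumor received test compound or vehicle. Survival was recorded in each group, and the value is the treated-group measurement divided by that of the vehicle-treated control group.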

The mark [1] stands for this setting: dose: 3.12 mg/kg/injection, schedule: Q01DX005 (ip), vehicle: Klucel (hydroxypropylcellulose) (HPC).
The mark [2] stands for this setting: dose: 6.25 mg/kg/injection, schedule: Q01DX005 (ip), vehicle: Klucel (hydroxypropylcellulose) (HPC).
The mark [3] stands for this setting: dose: 50.0 mg/kg/injection, schedule: Q01DX005 (ip), vehicle: Klucel (hydroxypropylcellulose) (HPC).
[4] abbreviates: dose: 100.0 mg/kg/injection, schedule: Q01DX005 (ip), vehicle: Klucel (hydroxypropylcellulose) (HPC).
The mark [5] stands for this setting: dose: 200.0 mg/kg/injection, schedule: Q01DX005 (ip), vehicle: Klucel (hydroxypropylcellulose) (HPC).
The mark [6] stands for this setting: dose: 100.0 mg/kg/injection, schedule: Q04DX002 (ip), vehicle: Klucel (hydroxypropylcellulose) (HPC).
The mark [7] stands for this setting: dose: 60.0 mg/kg/injection, schedule: Q01DX005 (ip), vehicle: saline with Tween-80.

The structures appear in SMILES notation. “And” between values parts separate entries of the source, which are not always exact repeats. Identical values can stand only once. Inconclusive results and toxic doses are left out.

This note sets out measurements from PubChem BioAssay AID330 (DTP/NCI, 2004).

Turning to `CC1=C[P+](c2ccccc2)(c2ccccc2)c2ccccc2O1`, the T/C is 96 % of control (dose: 1.56 mg/kg/injection, schedule: Q01DX005 (ip), vehicle: Klucel (hydroxypropylcellulose) (HPC)); 109 % of control under setting [1]; 110 % of control under setting [2].
Take `O=c1[nH]c2ccccc2c(=O)n1-c1cccs1`: the T/C was 105 % of control (dose: 100.0 mg/kg/injection, schedule: Q04DX002 (ip), vehicle: saline); 105 % of control (dose: 200.0 mg/kg/injection, schedule: Q04DX002 (ip), vehicle: saline); 99 % of control (dose: 400.0 mg/kg/injection, schedule: Q04DX002 (ip), vehicle: saline).
In the case of `COc1ccccc1C1N(C)CCCN1C`, the T/C runs as follows: (dose: 6.25 mg/kg/injection, schedule: Q01DX009 (ip), vehicle: saline) 95 % of control; (dose: 12.5 mg/kg/injection, schedule: Q01DX009 (ip), vehicle: saline) 95 % of control; (dose: 25.0 mg/kg/injection, schedule: Q01DX009 (ip), vehicle: saline) 100 % of control.
Take `CCCCNCCC(=O)c1ccc(Cl)cc1`: the T/C was 100 % of control (dose: 6.25 mg/kg/injection, schedule: Q01DX009 (ip), vehicle: saline with Tween-80); 100 % of control (dose: 12.5 mg/kg/injection, schedule: Q01DX009 (ip), vehicle: saline with Tween-80); 105 % of control (dose: 25.0 mg/kg/injection, schedule: Q01DX009 (ip), vehicle: saline with Tween-80).
For `O=C(O)c1nn(-c2ccccc2)c2c1CSc1ccccc1-2`, the T/C is, setting by setting: (dose: 100.0 mg/kg/injection, schedule: Q01DX001 (ip), vehicle: saline with Tween-80) 109 % of control; (dose: 200.0 mg/kg/injection, schedule: Q01DX001 (ip), vehicle: saline with Tween-80) 104 % of control.
Turning to `NC(=O)C(Cc1ccc(O)cc1)NC(=O)OCc1ccccc1` (configuration not stated), the T/C under setting [3] is 97 % of control, the T/C under setting [4] is 92 % of control and the T/C under setting [5] was 97 % of control.
`CC(=O)N/N=C(\C(=O)OC(=NC1CCCCC1)NC1CCCCC1)c1ccccc1`: the T/C runs as follows: under setting [3], 87 % of control; under setting [4], 87 % of control; under setting [5], 91 % of control.
`Nc1nnnn1/N=C/c1ccccc1`: the T/C is 87 % of control (dose: 50.0 mg/kg/injection, schedule: Q04DX002 (ip), vehicle: Klucel (hydroxypropylcellulose) (HPC)); 101 % of control under setting [6]; 100 % of control (dose: 200.0 mg/kg/injection, schedule: Q04DX002 (ip), vehicle: Klucel (hydroxypropylcellulose) (HPC)).
In the case of `Cc1cc(=O)c(C(=O)NC(=O)c2ccccn2)c(C)o1`, the T/C is, setting by setting: under setting [3], 101 % of control; under setting [4], 101 % of control; under setting [5], 107 % of control.
Turning to `COC1/C=C\OC2(C)Oc3c(C)c(O)c4c(c3C2=O)C(=O)C=C(NC(=O)C(C)=C/C=C\C(C)C(=O)C(C)C2OC(C)(C)OC(C1C)C2C)C4=O` (configuration not stated), the T/C is 100 % of control (dose: 6.25 mg/kg/injection, schedule: Q04DX003 (ip), vehicle: other); 106 % of control and 110 % of control (dose: 12.5 mg/kg/injection, schedule: Q04DX003 (ip), vehicle: distilled water + Tween-80); 107 % of control (dose: 12.5 mg/kg/injection, schedule: Q04DX003 (ip), vehicle: other); 101 % of control and 121 % of control (dose: 25.0 mg/kg/injection, schedule: Q04DX003 (ip), vehicle: distilled water + Tween-80); 156 % of control (dose: 25.0 mg/kg/injection, schedule: Q04DX003 (ip), vehicle: other); 91 % of control and 95 % of control (dose: 50.0 mg/kg/injection, schedule: Q04DX003 (ip), vehicle: distilled water + Tween-80). Also, the T/C is, setting by setting: (dose: 50.0 mg/kg/injection, schedule: Q04DX003 (ip), vehicle: other) 108 % of control; (dose: 100.0 mg/kg/injection, schedule: Q04DX003 (ip), vehicle: distilled water + Tween-80) 103 % of control and 97 % of control; (dose: 100.0 mg/kg/injection, schedule: Q04DX003 (ip), vehicle: other) 118 % of control; (dose: 200.0 mg/kg/injection, schedule: Q04DX003 (ip), vehicle: distilled water + Tween-80) 113 % of control and 117 % of control.
Regarding `N#Cc1c2c(c(=O)n3c1[nH]c1ccccc13)CCCC2`, the T/C reads like this: under setting [7], 93 % of control; (dose: 120.0 mg/kg/injection, schedule: Q01DX005 (ip), vehicle: saline with Tween-80) 94 % of control; (dose: 240.0 mg/kg/injection, schedule: Q01DX005 (ip), vehicle: saline with Tween-80) 90 % of control.
With `CCOC(=O)NC(=S)Nc1cccs1`, the T/C runs as follows: (dose: 50.0 mg/kg/injection, schedule: Q01DX009 (ip), vehicle: saline with Tween-80) 91 % of control; (dose: 100.0 mg/kg/injection, schedule: Q01DX009 (ip), vehicle: saline with Tween-80) 100 % of control; (dose: 200.0 mg/kg/injection, schedule: Q01DX009 (ip), vehicle: saline with Tween-80) 101 % of control.
As to `NS(=O)(=O)c1ccc(N=Cc2cnc3ccccc3n2)cc1`, the T/C runs as follows: (dose: 5.0 mg/kg/injection, schedule: Q01DX009 (ip), vehicle: saline) 97 % of control; (dose: 10.0 mg/kg/injection, schedule: Q01DX009 (ip), vehicle: saline) 101 % of control; (dose: 20.0 mg/kg/injection, schedule: Q01DX009 (ip), vehicle: saline) 97 % of control.
Regarding `O=C1C2C3(CCl)C1C23CCl` (configuration not stated), the T/C is, setting by setting: (dose: 7.5 mg/kg/injection, schedule: Q01DX005 (ip), vehicle: Klucel (hydroxypropylcellulose) (HPC)) 108 % of control; (dose: 15.0 mg/kg/injection, schedule: Q01DX005 (ip), vehicle: Klucel (hydroxypropylcellulose) (HPC)) 104 % of control; (dose: 30.0 mg/kg/injection, schedule: Q01DX005 (ip), vehicle: Klucel (hydroxypropylcellulose) (HPC)) 108 % of control.
With `COC(=O)c1cn(C2OC(CO)C(O)C2O)c2ncnc(N)c12` (configuration not stated), the T/C is 103 % of control (dose: 3.75 mg/kg/injection, schedule: Q01DX005 (ip), vehicle: saline with Tween-80); 104 % of control (dose: 7.5 mg/kg/injection, schedule: Q01DX005 (ip), vehicle: saline with Tween-80); 117 % of control and 98 % of control (dose: 15.0 mg/kg/injection, schedule: Q01DX005 (ip), vehicle: saline with Tween-80); 100 % of control under setting [7].
In the case of `CN(C)CCOc1ccc2c(c1)C/C(=C/c1ncc([N+](=O)[O-])n1C)C2=O`, the T/C reads like this: (dose: 11.0 mg/kg/injection, schedule: Q01DX009 (ip), vehicle: saline with Tween-80) 124 % of control; (dose: 15.0 mg/kg/injection, schedule: Q01DX009 (ip), vehicle: saline with Tween-80) 109 % of control and 117 % of control; (dose: 22.0 mg/kg/injection, schedule: Q01DX009 (ip), vehicle: saline with Tween-80) 124 % of control; (dose: 30.0 mg/kg/injection, schedule: Q01DX009 (ip), vehicle: saline with Tween-80) 119 % of control; (dose: 60.0 mg/kg/injection, schedule: Q01DX009 (ip), vehicle: saline with Tween-80) 117 % of control; (dose: 180.0 mg/kg/injection, schedule: Q01DX009 (ip), vehicle: saline with Tween-80) 87 % of control.
As to `CCN(CC)CCCC(C)Nc1c2ccc(Cl)cc2nc2cc(N=Nc3cccc4ccccc34)c(OC)cc12` (configuration not stated), the T/C is, setting by setting: (dose: 25.0 mg/kg/injection, schedule: Q04DX003 (ip), vehicle: saline with Tween-80) 92 % of control; (dose: 50.0 mg/kg/injection, schedule: Q04DX003 (ip), vehicle: saline with Tween-80) 92 % of control; (dose: 100.0 mg/kg/injection, schedule: Q04DX003 (ip), vehicle: saline with Tween-80) 118 % of control.
Consider `N=C(N)c1ccc(N=Nc2c(O)ccc3cc(O)ccc23)cc1`, for which the T/C is 104 % of control under setting [1]; 101 % of control and 102 % of control under setting [2]; 116 % of control (2×) and 95 % of control (dose: 12.5 mg/kg/injection, schedule: Q01DX005 (ip), vehicle: Klucel (hydroxypropylcellulose) (HPC)).
For the compound `CCCCNC1c2ccccc2CCC1O` (configuration not stated), the T/C reads like this: (dose: 100.0 mg/kg/injection, schedule: Q01DX001 (ip), vehicle: Klucel (hydroxypropylcellulose) (HPC)) 97 % of control; under setting [6], 118 % of control; (dose: 200.0 mg/kg/injection, schedule: Q01DX001 (ip), vehicle: Klucel (hydroxypropylcellulose) (HPC)) 99 % of control.
